# Like-named read-outs stand apart in the source and are kept apart here.
# What was measured:
# [1] = In vivo pharmacokinetics; parameters: species or system male Sprague Dawley rats; conditions: for Vd: read-out: Plasma Vss
# Method: Single dose intravenous (IV) pharmacokinetic (PK) studies in male Sprague Dawley rats and IV and oral PK studies in female BALB/c mice were conducted at Monash University. […] Blood was sampled via a cannula implanted in the carotid artery (also on the day prior to dosing) at pre-determined time points up to 24 h post-dose. Samples were transferred to vials containing heparin as an anticoagulant, gently mixed and centrifuged, and plasma separated for subsequent quantitative analysis using LC-MS. […] A dose of 25 mg/kg prepared in an aqueous suspension vehicle containing 0.5% hydroxypropyl methylcellulose, 0.5% benzyl alcohol and 0.4% polysorbate 80 (0.2 mL per mouse) was also dosed via oral gavage. Mouse blood was sampled via submandibular bleed up to 24 h post-dose (n=2 mice per time point, n=3 samples per mouse) into vials containing heparin and plasma was separated for quantitative analysis as described above.
# Additional PK studies were also conducted by WuXi AppTec Co, Ltd (Shanghai, China) according to protocols reviewed and approved by DNDi. […] IV and oral formulations for rats, mice and hamsters were the same as described above. For dogs, the IV dose was administered in saline containing 2% DMSO and 3% Solutol HS-15 and the oral formulation was as described above. Blood was sampled up to 48 h post-dose into vials containing potassium EDTA as an anticoagulant, proteins were precipitated with acetonitrile and plasma was separated and assayed by LC-MS.
# Single dose pharmacokinetic parameters (clearance, volume of distribution and half-life) were initially estimated using non-compartmental methods and oral bioavailability was calculated using the ratio of the dose corrected AUC after oral dosing relative to that after IV administration. Nominal doses were used in the calculations unless the measured dose differed by more than 15% from the nominal dose, in which case the measured dose was used. Where a full concentration versus time profile was obtained from a single animal, parameters were estimated for each animal and mean and standard deviations calculated. In the case of mice where sparse sampling was used with multiple animals per time point, the data analysis was conducted using the mean profile.
# [2] = In vitro cytotoxicity assay; format: cell-based; conditions: mouse, 3T3 mouse embryo fibroblasts
# [3] = tested on: L. donovani promastigote cultures; test: microbe, parasite or virus in culture; format: cell-based; conditions: Leishmania donovani
# Method: The clonal L. donovani cell line LdBOB (derived from MHOM/SD/62/1S-CL2D) was grown as promastigotes at 28°C and as axenic amastigotes at 37°C, as described previously ([25]).
# To examine the effects of test compounds on growth in 96-well plates, promastigote or axenic amastigote cultures seeded at 5 × 10^4 parasites mL^–1 were incubated in the presence of 2-fold serial dilutions of test compounds for 72 h. Following incubation, 50 μM resazurin was added to each well and fluorescence (excitation of 528 nm and emission of 590 nm) measured after a further 3 h incubation.
# Starting at sublethal concentrations, drug concentrations in 5 independent cultures were increased in a stepwise manner, usually by 2-fold. […] Five clones (Res 1–5) were selected for further biological study.
# [4] = In vitro cytotoxicity assay; format: cell-based; conditions: human, HFF human foreskin fibroblasts
# [5] = tested on: AR; test: In vitro pharmacology panel (Eurofins); format: binding, human; conditions: 10 µM
# From the text: Listed values represent the percent change relative to the DMSO control activity. When an IC50 had to be determined, eight different concentrations were included. All values are the mean of assay readout duplicates.
# [6] = male, Sprague Dawley, plasma, Rat, oral 10 mg/kg
# [7] = male, Sprague Dawley, rat, plasma, rats, single oral 50 mg/kg
# [8] = male, Sprague Dawley, rat, plasma, rats, single oral 100 mg/kg
# [9] = male, Sprague Dawley, rat, plasma, rats, single oral 300 mg/kg
smiles,measurement,setting,value
Cc1[nH]c2nc(N)nc(C)c2c1-c1ccc(C#N)c2c1OCO2 [DNDI-6174],Cmax,[1]; [6],4210 ng/mL
same,Tmax,[1]; [6],4 h
same,bioavailability,[1]; [6],93%
same,half-life,"[1]; male, Sprague Dawley, rat, plasma, iv, 3 mg/kg, Rat, intravenous 3.0 mg/kg, Monash University, read-out: Apparent t1/2 (converted)",7.9 h
same,AUC(0-inf),"[1]; male, Sprague Dawley, rat, plasma, iv, 3 mg/kg, Rat, intravenous 3.0 mg/kg, Monash University, read-out: Plasma AUC0-inf",23600 ng·h/mL
same,clearance,"[1]; male, Sprague Dawley, rat, plasma, iv, 3 mg/kg, Rat, intravenous 3.0 mg/kg, Monash University, read-out: Plasma CL",2.12 mL/min/kg
same,Vd,"[1]; male, Sprague Dawley, rat, plasma, iv, 3 mg/kg, Rat, intravenous 3.0 mg/kg, Monash University",1.4 L/kg
same,half-life,"[1]; male, Sprague Dawley, rat, plasma, iv, 3 mg/kg, Rat, intravenous 3.0 mg/kg, WuXi AppTec, read-out: Apparent t1/2 (converted)",5.3 h
same,AUC(0-inf),"[1]; male, Sprague Dawley, rat, plasma, iv, 3 mg/kg, Rat, intravenous 3.0 mg/kg, WuXi AppTec, read-out: Plasma AUC0-inf",18500 ng·h/mL
same,clearance,"[1]; male, Sprague Dawley, rat, plasma, iv, 3 mg/kg, Rat, intravenous 3.0 mg/kg, WuXi AppTec, read-out: Plasma CL",2.95 mL/min/kg
same,Vd,"[1]; male, Sprague Dawley, rat, plasma, iv, 3 mg/kg, Rat, intravenous 3.0 mg/kg, WuXi AppTec",1.3 L/kg
same,clearance,"[1]; male, Sprague Dawley, rat, plasma, iv, 3 mg/kg, Rat, read-out: Measured in vivo CLplasma",2.5 mL/min/kg
same,half-life,"[1]; male, Sprague Dawley, rat, plasma, po, 10 mg/kg, Rat, oral 10 mg/kg, read-out: Apparent t1/2 (converted)",7 h
same,AUC(0-inf),"[1]; male, Sprague Dawley, rat, plasma, po, 10 mg/kg, Rat, oral 10 mg/kg, read-out: Plasma AUC0-∞",57700 ng·h/mL
same,AUC(0-inf),"[1]; male, Sprague Dawley, rat, plasma, po, 50 mg/kg, rats, single oral 50 mg/kg, read-out: AUC0-∞",292000 ng·h/mL
same,half-life,"[1]; male, Sprague Dawley, rat, plasma, po, 50 mg/kg, rats, single oral 50 mg/kg, read-out: T1/2 (converted)",9.05 h
same,Cmax,[1]; [7],14200 ng/mL
same,Tmax,[1]; [7],5.7 h
same,Cmax,[1]; [8],20900 ng/mL
same,Tmax,[1]; [8],17 h
same,Cmax,[1]; [9],30900 ng/mL
same,Tmax,[1]; [9],27 h
same,parent compound excreted unchanged in urine,"[1]; rats, intravenous",< 1%
same,AUC0-24 (reported in AUC0-∞ line),"[1]; rats, single oral 100 mg/kg",430000 ng·h/mL
same,AUC0-24 (reported in AUC0-∞ line),"[1]; rats, single oral 300 mg/kg",562000 ng·h/mL
same,CC50,[2],> 37000 nM
same,EC50,"[3]; DDD01716002 Res 1, read-out: EC50 (representative curve, Fig. 2A)",1276 ± 2 nM
same,EC50,"[3]; WT, read-out: EC50 (representative curve, Fig. 2A)",22 ± 2 nM
same,EC50,"[3]; Wild-type promastigotes, read-out: EC50 values",24 ± 1 nM
same,EC50,"[3]; read-out: EC50 values, DDD01716002 Res 1 (S207P)",779 ± 98 nM
same,EC50,"[3]; read-out: EC50 values, DDD01716002 Res 2 (G31A)",829 ± 63 nM
same,EC50,"[3]; read-out: EC50 values, DDD01716002 Res 3 (F227I)",84 ± 3 nM
same,EC50,"[3]; read-out: EC50 values, DNDI-6174 Res 1 (S35N/S206N)",431 ± 16 nM
same,EC50,"[3]; read-out: EC50 values, DNDI-6174 Res 2 (D231E)",3950 ± 228 nM
same,EC50,"[3]; read-out: EC50 values, DNDI-6174 Res 3 (S207P)",1500 ± 91 nM
same,EC50,"[3]; read-out: EC50 values, DNDI-6174 Res 4 (G31A)",2700 ± 145 nM
same,EC50,"[3]; read-out: EC50 values, DNDI-6174 Res 5 (S206N)",157 ± 5 nM
same,CC50,[4],> 64000 nM
same,activity (% of DMSO control),[5],99.1%
